Measurements: patent US11001591B2, “TRAF 6 inhibitors” (HELMHOLTZ ZENTRUM MUENCHEN—DEUTSCHES FORSCHUNGSZENTRUM FÜR …, priority 2016, dated 2021)

Tests used:
[1] = tested on: human peripheral blood mononuclear cells (PBMCs); experiment: Cytokine secretion of primary human PBMCs; assay type: cell-based
Protocol: For measurement of cytokine secretion, 2×10^5 Jurkat T-cells or primary CD4^+ T-cells or human PBMCs per sample were seeded, treated with compound for 6 hours and stimulated as indicated. 20 hours after stimulation, supernatants were harvested and analyzed with the IL-2, IL-1β and TNFα Ready-Set-Go! ELISA (2nd Generation) kits provided by Affymatrix eBioscience.
For isolation of peripheral blood mononuclear cells (PBMCs) from 50 mL human blood of three different donors, blood was mixed with 800 units of Heparin (Sigma-Aldrich) and centrifuged at 300×g for 10 minutes without brake. After removal of the plasma fraction, buffy coat was diluted in 2 volumes PBS and added on top of 15 ml Lymphoprep (STEMCELL technologies). After centrifugation at 160×g for 20 minutes at room temperature without brake, platelets were removed and the cell suspension was centrifuged again at 350 xg for 20 minutes without brake. Mononuclear cells from the intermediate layer were transferred to a new falcon and washed 3 times in PBS supplemented with 0.1% BSA and 2 mM EDTA. In the end, cells were resuspended in RPMI medium containing 10% FCS, 1% Penicillin/Streptomycin and 50 μM β-mercaptoethanol. Per sample, 2×10^5 cells were seeded and treated with compound for 6 hours. The cells were stimulated with either 1 μg/ml Lipopolysaccharide (LPS) or CD3/CD28 (1 μg hCD3 (IgG2A), 4 μg hCD28 (IgG1), 2 μg ant-IgG2A and 2 μg ant-IgG2A) or 20 ng/IL-1β. Supernatants for analysis of cytokine secretion were harvested 20 hours after stimulation.

hERG = target: T1, hERG (Homo sapiens, UniProt Q12809); experiment: hERG predictor assay; assay type: in vitro ADME
T1 construct: Bienta/Enamine Ltd. (contract lab)
T1 sequence (Q12809 whole entry): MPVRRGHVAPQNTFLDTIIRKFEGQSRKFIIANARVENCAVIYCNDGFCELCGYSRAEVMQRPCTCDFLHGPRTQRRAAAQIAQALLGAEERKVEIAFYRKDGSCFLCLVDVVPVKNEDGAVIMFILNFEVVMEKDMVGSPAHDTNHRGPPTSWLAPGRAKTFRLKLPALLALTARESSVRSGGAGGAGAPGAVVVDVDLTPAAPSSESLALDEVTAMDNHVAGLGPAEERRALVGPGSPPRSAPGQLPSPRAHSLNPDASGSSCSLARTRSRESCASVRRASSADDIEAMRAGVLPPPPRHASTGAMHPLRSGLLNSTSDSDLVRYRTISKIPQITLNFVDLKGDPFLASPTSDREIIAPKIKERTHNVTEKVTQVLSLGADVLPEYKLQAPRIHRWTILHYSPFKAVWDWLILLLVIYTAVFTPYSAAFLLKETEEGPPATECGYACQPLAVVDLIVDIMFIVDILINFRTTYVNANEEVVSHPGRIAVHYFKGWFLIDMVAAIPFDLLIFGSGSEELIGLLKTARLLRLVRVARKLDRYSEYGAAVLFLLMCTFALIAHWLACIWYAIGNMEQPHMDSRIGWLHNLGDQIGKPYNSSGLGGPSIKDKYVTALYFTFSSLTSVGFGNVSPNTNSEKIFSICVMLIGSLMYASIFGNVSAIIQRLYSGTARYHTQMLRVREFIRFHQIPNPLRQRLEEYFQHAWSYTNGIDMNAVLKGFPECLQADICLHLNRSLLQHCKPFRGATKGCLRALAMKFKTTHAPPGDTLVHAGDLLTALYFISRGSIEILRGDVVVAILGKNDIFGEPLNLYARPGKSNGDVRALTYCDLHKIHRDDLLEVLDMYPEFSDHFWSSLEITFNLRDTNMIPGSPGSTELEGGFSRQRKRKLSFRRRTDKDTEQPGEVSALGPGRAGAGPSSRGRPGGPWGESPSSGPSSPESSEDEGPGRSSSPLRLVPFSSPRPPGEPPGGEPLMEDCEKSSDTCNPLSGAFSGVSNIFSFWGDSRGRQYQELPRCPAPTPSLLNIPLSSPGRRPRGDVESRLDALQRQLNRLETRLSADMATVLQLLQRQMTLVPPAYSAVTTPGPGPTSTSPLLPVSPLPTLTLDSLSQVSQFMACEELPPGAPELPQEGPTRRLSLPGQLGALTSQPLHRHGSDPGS
Protocol: All ADME (plasma stability, plasma protein binding, microsomal stability, Log D, Caco-2 assay, CYP450 inhibition and hERG predictor assay) as well as pharmacokinetic studies (Tmax, Cmax, AUC0-240 min, Mean Residence Time, Elimination half life, Elimination rate constant, Volume of Distribution and Clearance) of C25-140 (compound 3) were conducted by Bienta Enamine Biology Services of Bienta/Enamine Ltd.

[2] = tested on: TRAF6 auto-ubiquitination; experiment: Immunoprecipitation of TRAF6, endogenous ubiquitination in MEF cells; assay type: cell-based, mouse
Protocol: 2.5×10^6 MEF cells were seeded, treated with compound for 6 hours and stimulated with IL-1β (3.5 ng/mL) for 10 minutes. Cells were lysed in Co-IP lysis buffer containing 1% SDS to eliminate all cellular interactions. After cell lysis and removal of input samples, the samples were diluted to 0.1% SDS and incubated with 5 μL TRAF6 antibody EP591Y (Abcam) and immunoprecipitated with Protein-G-Sepharose beads. After washing of the beads in Co-IP wash buffer, TRAF6 protein was eluted and levels of TRAF6 ubiquitination were detected by Western Blot analysis.

TRAF6 RZ1 protein = target: T2, TRAF6 RZ1 protein (Homo sapiens, UniProt Q9Y4K3); experiment: 2D-NMR (SOFAST-HMQC) binding; conditions: protein:compound 1:5
T2 construct: RING-Zincfinger1 (RZ1) domain (residues 50-159) of TRAF6 wildtype; GST (N, cleaved yes); made in house; host or cells: E. coli BL21 codon plus RIPL
T2 sequence (Q9Y4K3 50-159): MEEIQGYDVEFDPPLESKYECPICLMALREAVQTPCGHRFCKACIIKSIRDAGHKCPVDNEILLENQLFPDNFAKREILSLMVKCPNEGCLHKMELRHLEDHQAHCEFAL
Protocol: To determine whether the inhibitory compounds directly bind to TRAF6 rather than to Ubc13, 2D-NMR experiments were conducted. Untagged ^15N-labeled TRAF6 RZ1 protein (c=120 μM) and compound (c=20 mM) were incubated at a ratio of 1:5 in a 3 mm NMR tube for 10 minutes before spectra acquisition. To observe chemical shift perturbations upon compound addition, two-dimensional SOFAST-HMQC spectra were acquired. All measurements were performed using the Bruker Avance 600 MHz spectrometer.

[3] = tested on: HBL1 (ABC-DLBCL-MYD88 L265P); experiment: Cell viability in DLBCL, HBL1; assay type: cell-based; conditions: 30 μM added at day 0, 4 and 8; 9 days
Protocol: To determine the effects of C25-140 on MYD88-dependent ABC-DLBCL, we chose the HBL1 (ABC-DLBCL-MYD88 L265P), U2932 (ABC DLBCL-MYD88 wt) and BJAB (GCB DLBCL) cell lines. 1×10^6 cells of each cell line was seeded in 5 ml and treated with 30 μM compound C25-140 (compound 3) or DMSO. The entire experiment was carried out for 9 days. Every day 500 μl were taken and viable cell number was acquired using the ViCEII cell counter (Beckmann Coulter). At days 4 and 8 of the experiment the volume was again adjusted to 5 ml and samples were supplemented with 30 μM compound C25-140 or DMSO. This process was necessary to ensure linear proliferation of DMSO treated cells. All curves of C25-140 treated samples were referred to the corresponding DMSO treated controls.

[4] = tested on: Collagen-Induced Arthritis, DBA1/J mice; experiment: Collagen-Induced Arthritis (CIA) model; assay type: in vivo, mouse
Protocol: In order to test the potential of C25-140 to ameliorate RA symptoms, a Collagen-Induced Arthritis (CIA) Model in DBA1/J mice was performed by Washington Biotechnology, Inc. (Baltimore, USA). Each group of ten mice was subjected to a single subcutaneous injection of collagen/complete Freund's Adjuvant emulsion (0.05 ml/mouse; 100 μg collagen/CFA). After 20 days (day 21), mice were booster injected with collagen (0.05 ml/mouse; 100 μg/mouse collagen in Incomplete Freund's Adjuvant). On day 28, mice were scored for their Arthritic Index (AI) and 14 days intraperitoneally dosed twice daily with 6 mg/kg, 10 mg/kg and 14 mg/kg C25-140, respectively. Mice were scored of macroscopic signs of arthritis daily. Thereby, the following scoring index was applied to each individual paw: 0=no visible effects of arthritis; 1=edema and/or erythema of 1 digit; 2=edema and/or erythema of 2 digits; 3=edema and/or erythema of more than 2 digits; 4=severe arthritis of entire paw and digits. Single paw scores were added and recorded. On day 42, animals were euthanized, limbs were collected and histopathology was performed using Toluidine blue staining with scoring of several parameters.

For Cc1nn(-c2ccc3nnc(C)n3n2)c(C)c1CCC(=O)N1CCC(Cc2ccccc2)CC1 [Compound 3, 1-(4-benzylpiperidin-1-yl)-3-(3,5-dimethyl-1-(3-methyl-[1,2,4]triazolo[4,3-b]pyridazin-6-yl)-1H-pyrazol-4-yl)propan-1-one], the “secretion of IL-2 and TNFα” value ([1]; human PBMCs stimulated with CD3/CD28) was “decreased levels”, the “secretion of IL-6 and TNFα” value ([1]; human PBMCs stimulated with IL-1β) was “attenuated” and the “secretion of IL-1β and TNFα” value ([1]; human PBMCs stimulated with LPS) was “reduced levels”. For the same compound, the hERG inhibition (hERG) was “does not very much inhibit hERG”, the “IL-1β-induced TRAF6 auto-ubiquitination” value [2] was “reduced” and the “direct binding to TRAF6 (NMR peak shifts)” value (TRAF6 RZ1 protein) was “directly binds”. The “viability (cell count)” value [3] was “significantly reduced”, the “arthritic index (AI)” value ([4]; 10 mg/kg and 14 mg/kg IP twice daily, 14 days) was “almost completely ameliorated” and the “histology of limbs (summed scores, inflammation, pannus, cartilage damage, bone resorption)” value ([4]; 6, 10, 14 mg/kg IP twice daily) was “dose-dependently improves”. For the same compound, the body weight ([4]; throughout the study) was “did not show any signs of reduction”.
